In patent US8865623B2, “Herbicidally active cyclic diones and derivatives thereof, processes for their preparation, compositions, and method of controlling weeds” (Syngenta Limited, priority 2009, dated 2014):

Assays:
Type in all cases: in vivo
[1] = test system: Alopecurus myosuroides (ALOMY); assay: Pre-emergence herbicidal activity, glasshouse pot test; details: Alopecurus myosuroides, 312 h; Rate 250 g/ha; pre-emergence spray; evaluated after 13 days; read-out: Pre-emergence activity ALOMY (100=total damage to plant; 0=no damage to plant)
Procedure, shortened: (§1)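 After sowing in standard soil, pots were cultivated for one day (pre-emergence) or eight days (post-emergence), then sprayed. Plants were watered twice daily in the glasshouse, and damage was rated 13 days after treatment, 0 being none and 100 total.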

Avena fatua (AVEFA) [2] = assay: as above; details: Avena fatua, 312 h; Rate 250 g/ha; pre-emergence spray; evaluated after 13 days; read-out: Pre-emergence activity AVEFA (100=total damage to plant; 0=no damage to plant)
Procedure, shortened: as §1

[3] = test system: Echinochloa crus-galli (ECHCG); assay: as above; details: Echinochloa crus-galli, 312 h; Rate 250 g/ha; pre-emergence spray; evaluated after 13 days; read-out: Pre-emergence activity ECHCG (100=total damage to plant; 0=no damage to plant)
Procedure, shortened: as §1

Lolium perenne (LOLPE) [4] = assay: as above; details: Lolium perenne, 312 h; Rate 250 g/ha; pre-emergence spray; evaluated after 13 days; read-out: Pre-emergence activity LOLPE (100=total damage to plant; 0=no damage to plant)
Procedure, shortened: as §1

[5] = test system: Alopecurus myosuroides (ALOMY); assay: Post-emergence herbicidal activity, glasshouse pot test; details: Alopecurus myosuroides, 312 h, rate 250 g/ha, evaluated after 13 days, glasshouse, read-out: Post-emergence activity ALOMY (100=total damage to plant; 0=no damage to plant)
Procedure, shortened: as §1

Avena fatua (AVEFA) [6] = assay: as above; details: Avena fatua, 312 h, rate 250 g/ha, evaluated after 13 days, glasshouse, read-out: Post-emergence activity AVEFA (100=total damage to plant; 0=no damage to plant)
Procedure, shortened: as §1

[7] = test system: Echinochloa crus-galli (ECHCG); assay: as above; details: Echinochloa crus-galli, 312 h, rate 250 g/ha, evaluated after 13 days, glasshouse, read-out: Post-emergence activity ECHCG (100=total damage to plant; 0=no damage to plant)
Procedure, shortened: as §1

Lolium perenne (LOLPE) [8] = assay: as above; details: Lolium perenne, 312 h, rate 250 g/ha, evaluated after 13 days, glasshouse, read-out: Post-emergence activity LOLPE (100=total damage to plant; 0=no damage to plant)
Procedure, shortened: as §1

SMILES	pest or weed control at 250 g/ha [1] [%]	pest or weed control at 250 g/ha (Avena fatua (AVEFA) [2]) [%]	pest or weed control at 250 g/ha [3] [%]	pest or weed control at 250 g/ha (Lolium perenne (LOLPE) [4]) [%]	pest or weed control at 250 g/ha [5] [%]	pest or weed control at 250 g/ha (Avena fatua (AVEFA) [6]) [%]	pest or weed control at 250 g/ha [7] [%]	pest or weed control at 250 g/ha (Lolium perenne (LOLPE) [8]) [%]
CCc1ccc(Oc2ccc(OC(F)(F)F)cc2)cc1C1=C(O)[C@H]2CC[C@H](C2)C1=O [Example A-248]	90	80	100	100	100	100	100	100
CCc1ccc(Oc2ccc(Cl)c(F)c2)cc1C1=C(O)[C@H]2CC[C@H](C2)C1=O [Example A-249]	60	60	90	90	90	100	100	70
CCc1ccc(Oc2ccc(Br)cc2F)cc1C1=C(O)[C@H]2CC[C@H](C2)C1=O [Example A-250]	80	50	90	80	90	80	100	80
CCc1ccc(Oc2cc(Cl)c3ccccc3n2)cc1C1=C(O)C(C)(C)OC(C)(C)C1=O [Example A-251]	40	20	100	80	80	30	100	0
CCc1ccc(Oc2nc3ccccc3cc2C)cc1C1=C(O)C(C)(C)OC(C)(C)C1=O [Example A-253]	70	30	80	100	50	40	70	70
CCc1ccc(Oc2cnc3cc(Cl)ccc3n2)cc1C1=C(O)[C@H]2CC[C@H](C2)C1=O [Example A-255]	100	100	100	100	100	100	100	100
CCc1ccc(Oc2ccc3cc(Br)ccc3n2)cc1C1=C(O)C(C)(C)OC(C)(C)C1=O [Example A-256]	50	20	80	80	90	80	90	90
CCc1ccc(Oc2ccc(F)c(Cl)c2)cc1C1=C(O)CC(C)(C)CC1=O [Example A-257]	0	0	40	20	30	0	80	50
CCc1ccc(Oc2ccc(Br)c(Cl)c2)cc1C1=C(O)CC(C)(C)CC1=O [Example A-258]	30	10	70	30	70	70	100	80
CCc1ccc(Oc2ccc3cc(Cl)ccc3n2)cc1C1=C(O)[C@H]2CC[C@H](C2)C1=O [Example A-260]	80	0	90	90	90	100	90	80
CCc1ccc(Oc2ccc3cc(Cl)ccc3n2)cc1C1=C(O)CC(C)(C)CC1=O [Example A-261]	80	50	90	80	90	100	100	100
CC1(C)OC(C)(C)C(O)=C(c2cc(Oc3ccc(Cl)cc3Cl)ccc2C2CC2)C1=O [Example A-262]	30	0	70	70	80	50	90	60
CCc1ccc(Oc2ncc(Cl)cn2)cc1C1=C(O)CC2(CCOCC2)CC1=O [Example A-263]	60	20	100	50	100	90	100	60
CCc1ccc(Oc2nc3ccc(OC)cc3s2)cc1C1=C(O)CC2(CCOCC2)CC1=O [Example A-264]	90	80	100	90	90	90	100	100
CCc1ccc(Oc2nc3ccc([N+](=O)[O-])cc3s2)cc1C1=C(O)CC2(CCOCC2)CC1=O [Example A-265]	60	0	90	80	70	70	100	70
CCc1ccc(Oc2ccc(C(F)(F)F)c(C#N)c2)cc1C1=C(O)CC2(CCOCC2)CC1=O [Example A-266]	50	50	90	90	90	90	100	70
CCc1ccc(Oc2ccc(C(F)(F)F)cn2)cc1C1=C(O)CC2(CCOCC2)CC1=O [Example A-267]	100	100	100	100	100	100	100	100
CCc1ccc(Oc2ncc(Cl)cc2C(F)(F)F)cc1C1=C(O)CC2(CCOCC2)CC1=O [Example A-268]	90	80	100	100	90	90	100	70
